Source: ChEMBL document CHEMBL1150417, “Discovery of novel small-molecule inhibitors of human epidermal growth factor receptor-2: combined ligand and target-based approach” (J Med Chem, 2008)

Tested on: SK-BR-3
Test: Cytotoxicity against human SKBR3 cells at 10 uM after 72 hrs by MTT assay
Format: functional
Conditions: not given

SMILES | Activity
O=C(CSc1ncnc2sc3c(c12)CCC3)Nc1ccc(S(=O)(=O)N2CCOCC2)cc1 | 12%
Cc1nc2cc(NCc3ccccc3O)ccc2n1Cc1ccccc1 | 13%
Cc1cc(O)nc(SCC(=O)Nc2ccc(C(=O)NC3CCCCC3)cc2)n1 | 21%
Cc1cc(Nc2ccc(N3CCC(C)CC3)cc2)n2ncnc2n1 | 25%
Cc1nn(-c2ccccc2)c2sc(C(=O)N(CC(=O)NC3CCCC3)C3CC3)cc12 | 22%
COc1cc(OCC(=O)Nc2cccc([N+](=O)[O-])c2)ccc1/C=N/Nc1ncnc2sc3c(c12)CCCC3 | 7%
c1ccc2c(NCCCNc3ncnc4ccccc34)ncnc2c1 | 32%
COc1ccc2[nH]c(=O)c(CN(CCc3cccc(C)c3)C(C)=O)cc2c1 | 5%
Cc1ccc2[nH]cc(CCNC(=O)c3cccnc3)c2c1 | 1%
COc1ccc(CN(CC(=O)NC2CCCC2)C(=O)Cn2cnc3sc(C)c(C)c3c2=O)cc1 | 21%
Cc1sc(NC(=O)CSc2ncnc3sc4c(c23)CCCC4)c(C#N)c1C | 26%
O=C(Nc1ccc(Oc2ccc3nsnc3c2)c(Cl)c1)c1cc(Cl)ccc1O | 30%
Cc1ccc(S(=O)(=O)N(Cc2ccc3c(c2)OCO3)Cc2cc3ccc(C)c(C)c3[nH]c2=O)cc1 | 12%
Clc1cc(Nc2c3ccccc3nc3ccccc23)ccc1Oc1ccc2ccccc2c1Br | 3%
O=C(Nc1cccc(NC(=O)c2ccc(Cl)cc2Cl)c1)c1cccnc1 | 2%
COc1ccc(-c2nc3cc(NC(=O)COc4ccc(C)cc4C)ccc3o2)cc1Br | 32%
Cc1ccc2[nH]c(=O)c(CN(Cc3cccs3)C(=O)c3ccco3)cc2c1 | 22%
O=C(CSc1ncnc2sc3c(c12)CCCC3)Nc1nc(-c2ccc(F)cc2)cs1 | 32%
CCOC(=O)c1c(-c2ccccc2)csc1NC(=O)CSc1ncnc2sc3c(c12)CCCC3 | 11%
CCOc1ccc(OCC)c(NC(=O)CSc2nc3c(C)cccc3cc2C#N)c1 | 16%
CCOc1ccc(Nc2c3c(nc4ncnn24)CCC3)cc1 | 26%
CCOc1ccc(Nc2nc(NCCO)nc(C)c2[N+](=O)[O-])cc1 | 32%
O=C(CSc1ncnc2sc3c(c12)CCCC3)Nc1nc(-c2ccccc2)cs1 | 34%

SMILES | Activity
COc1cccc(OC)c1C(=O)Nc1ccc2c(c1)OCC(=O)N2Cc1ccccc1Cl | 2%
CCC(C)(C)C1CCc2sc3ncnc(N/N=C(\C)c4ccc(OC)cc4)c3c2C1 (stereo unspecified) | 12%
O=[N+]([O-])c1ccccc1-c1nnc(CSc2ncnc3sc4c(c23)CCCC4)o1 | 7%
O=C(Nc1ncnc2sc3c(c12)CCC3)c1cccs1 | 20%
CC1CCc2c(sc3ncnc(NCc4ccco4)c23)C1 (stereo unspecified) | 2%
Cc1ccc(-c2csc3ncnc(SCC(=O)Nc4nc(-c5ccccc5)cs4)c23)cc1 | 33%
CCn1nnnc1SCC(=O)Nc1ccc(OCc2ccccc2)cc1 | 19%
COc1cc(/C=N/Nc2ncnc3sc4c(c23)CCCC4)ccc1OCC(=O)Nc1ccccc1 | 32%
c1cncc(CNc2ncnc3ccccc23)c1 | 15%
COC(=O)c1sc(NC(=O)CSc2nc(C3CC3)nc3sc4c(c23)CCCC4)nc1C | 31%
COc1cc(CNCc2cccnc2)ccc1OCc1ccccc1Cl | 1%
CCc1ccccc1NC(=O)NCCCNc1nc2cc(C)cc(C)c2cc1C#N | 29%
CCOC(=O)c1ccc(Nc2cc(C)nc3ncnn23)cc1 | 1%
O=C(CSc1ncnc2sc3c(c12)CCCC3)Nc1ccc(S(=O)(=O)N2CCCCCC2)cc1 | 11%
COc1cccc(-c2cc3cc4c(c(NCc5cc(OC)c(OC)c(OC)c5)n3n2)CCC4)c1 | 4%
O=C(NC1CCCC1)C(c1cccs1)N(C(=O)Cc1cccs1)c1ccc2c(c1)OCCO2 (stereo unspecified) | 16%
Cc1cc2cc(CN(Cc3cccs3)C(=O)Nc3ccccc3F)c(=O)[nH]c2cc1C | 19%
O=C(CSc1ncnc2sc3c(c12)CCCC3)NCc1cccc2c1OCO2 | 16%
COc1ccc(NC(=O)Cn2nnc(-c3ccccc3NC(=O)c3cccs3)n2)cc1 | 27%
COc1ccc(CCNc2c(Cc3ccccc3)c(C)nc3ncnn23)cc1OC | 21%
CCOC(=O)c1ccc(Nc2c([N+](=O)[O-])c(=O)oc3ccccc23)cc1 | 5%
COc1cc(NC(=O)CSc2nnnn2-c2ccc3c(c2)OCCO3)cc(OC)c1 | 15%

Tested on: SK-BR-3
Test: Cytotoxicity against human SKBr3 cells after 72 hrs by MTT assay
Format: functional, cell-based
Conditions: SK-BR-3, 72 h

SMILES | IC50
CCN(CC)CCNc1ccc(Nc2ccnc3cc4ccccc4cc23)cc1 | 2 µM
COc1ccc(CCNc2cc(-c3ccccc3)nc3ncnn23)cc1 | 9 µM
CN1CCN(c2ccc(Nc3ncnc4sc5c(c34)CCCC5)cc2)CC1 | 9 µM
CN1CCN(CCCNc2ccnc3cc4ccccc4cc23)CC1 | 15 µM
COc1ccc2nc(C)cc(Nc3ccc(Oc4ccc5ccccc5c4)c(Cl)c3)c2c1 | 5 µM
CCc1cc2c(NCCc3ccc(OC)c(OC)c3)ncnc2s1 | 14 µM
c1ccc(CCNc2ccnc3cc4ccccc4cc23)cc1 | 8 µM
CCN(CC)c1ccc(NC(=O)CSc2ncnc3sc(C)c(C)c23)cc1C | 16 µM
c1ccc(OCCOc2ccc(Nc3ccnc4cc5ccccc5cc34)cc2)cc1 | 2 µM
Fc1ccccc1CCNc1c2c(nc3ncnn13)CCCC2 | 14 µM
COc1ccc2nc(C)cc(Nc3ccc(Oc4ccc(Cl)cc4)c(Cl)c3)c2c1 | 5 µM
Brc1ccc2ncnc(NCCc3ccccc3)c2c1 | 15 µM

Target: Receptor tyrosine-protein kinase erbB-2 (Homo sapiens, UniProt P04626)
Test: Inhibition of HER2
Conditions: not given

Sequence of Receptor tyrosine-protein kinase erbB-2 (P04626 whole entry): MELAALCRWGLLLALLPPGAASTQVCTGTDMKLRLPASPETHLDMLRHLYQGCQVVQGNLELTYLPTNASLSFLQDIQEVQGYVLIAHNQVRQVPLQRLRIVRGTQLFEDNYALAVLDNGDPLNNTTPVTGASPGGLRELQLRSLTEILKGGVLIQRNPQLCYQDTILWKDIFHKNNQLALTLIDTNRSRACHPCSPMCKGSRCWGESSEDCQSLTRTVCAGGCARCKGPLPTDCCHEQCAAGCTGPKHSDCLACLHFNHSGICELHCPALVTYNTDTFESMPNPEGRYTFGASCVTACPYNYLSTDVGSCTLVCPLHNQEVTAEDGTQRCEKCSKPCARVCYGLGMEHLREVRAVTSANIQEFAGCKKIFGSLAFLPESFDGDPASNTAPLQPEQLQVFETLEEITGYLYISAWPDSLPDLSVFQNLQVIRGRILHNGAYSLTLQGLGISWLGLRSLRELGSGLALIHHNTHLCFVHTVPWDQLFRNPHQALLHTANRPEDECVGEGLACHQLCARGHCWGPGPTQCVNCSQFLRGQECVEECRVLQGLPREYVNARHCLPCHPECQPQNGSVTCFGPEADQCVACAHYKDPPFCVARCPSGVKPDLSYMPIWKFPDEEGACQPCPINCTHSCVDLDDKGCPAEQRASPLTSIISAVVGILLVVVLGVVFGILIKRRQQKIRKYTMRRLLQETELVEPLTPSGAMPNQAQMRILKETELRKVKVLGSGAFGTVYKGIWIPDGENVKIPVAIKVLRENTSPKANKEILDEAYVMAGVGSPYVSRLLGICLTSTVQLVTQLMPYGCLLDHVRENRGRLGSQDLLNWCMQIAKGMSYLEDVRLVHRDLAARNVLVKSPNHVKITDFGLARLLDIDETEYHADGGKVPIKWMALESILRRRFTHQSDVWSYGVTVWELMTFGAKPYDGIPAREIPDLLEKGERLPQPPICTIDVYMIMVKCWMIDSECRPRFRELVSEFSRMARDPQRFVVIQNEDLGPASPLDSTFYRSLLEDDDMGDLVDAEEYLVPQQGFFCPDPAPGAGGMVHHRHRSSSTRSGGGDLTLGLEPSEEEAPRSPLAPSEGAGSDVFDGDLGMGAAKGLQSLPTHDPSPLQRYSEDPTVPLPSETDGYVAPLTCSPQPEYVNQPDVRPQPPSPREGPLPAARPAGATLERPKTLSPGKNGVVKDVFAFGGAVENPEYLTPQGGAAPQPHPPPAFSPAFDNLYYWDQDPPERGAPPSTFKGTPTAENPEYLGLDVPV

SMILES | IC50
COCC(=O)NC/C=C/c1ccc2ncnc(Nc3ccc(Oc4ccc(C)nc4)c(C)c3)c2c1 [CP-724714] | 0.012 µM
CS(=O)(=O)CCNCc1nc(-c2ccc3ncnc(Nc4ccc(OCc5cccc(F)c5)c(Cl)c4)c3c2)cs1 | 0.01 µM
Nc1ncnc2nc(Sc3cc(Cl)ccc3Cl)[nH]c12 | 120 µM
CCCCn1c(S(=O)(=O)c2cc(OC)c(OC)c(OC)c2)nc2c(N)ncnc21 | 310 µM
COCOCC#CC(=O)Nc1ccc2ncnc(Nc3cccc(Br)c3)c2c1 | 0.009 µM
c1ccc(Oc2ccc(Nc3ccnc4ccccc34)cc2)cc1 | 0.733 µM
CONC(=O)c1ccc(F)c(Nc2ncnn3cc(NC(=O)OCCCS(C)(=O)=O)c(C(C)C)c23)c1 | 5.3 µM
COc1cc2nccc(Nc3ccc(N4C(=O)c5ccc(Cl)cc5C4=O)c(C)c3)c2cc1OC | 1.7 µM
Cc1cc2nc(CBr)c(-c3ccccc3)nc2cc1C | 21 µM
